According to patent US12516063B2, “Substituted 7-(methylamino)pyrazolo[1,5-a]pyrimidine-3-carboxamide derivatives for treating autoimmune diseases” (Eli Lilly and Company, priority 2020, dated 2026):

Key:
[1] = molecular target: T1, pseudokinase domain (JH2) of human TYK2 (Homo sapiens, UniProt P29597); test: TYK2-JH2 Tracer Binding Assay; settings: His-tagged TYK2-JH2 0.200 nM, Tracer 2.00 nM, 30 minutes, TR-FRET; n=1
T1 construct: The pseudokinase domain (JH2) of human JAK (Janus family of cytoplasmic tyrosine kinases) family tyrosine kinase 2 (TYK2); made in house
T1 sequence (P29597 589-875 limits assumed): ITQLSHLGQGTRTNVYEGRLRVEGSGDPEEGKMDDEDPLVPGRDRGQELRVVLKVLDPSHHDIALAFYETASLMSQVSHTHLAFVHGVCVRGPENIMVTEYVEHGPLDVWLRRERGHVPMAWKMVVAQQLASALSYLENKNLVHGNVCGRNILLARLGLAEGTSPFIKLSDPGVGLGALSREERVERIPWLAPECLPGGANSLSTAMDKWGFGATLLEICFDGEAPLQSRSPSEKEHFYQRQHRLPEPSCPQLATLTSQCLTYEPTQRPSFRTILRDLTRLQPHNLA
From the text: The pseudokinase domain (JH2) of human JAK (Janus family of cytoplasmic tyrosine kinases) family tyrosine kinase 2 (TYK2) (Genbank NP_003322) with an N-terminal His6 tag is expressed in baculovirus and purified by HisPur Ni-NTA affinity and Superdex 200 size-exclusion chromatography. The compound prepared in Preparation 11, a conjugate of Alexa Fluor 647 dye (Thermo Fisher Scientific) and a suitable TYK2 JH2 binder, is referred to herein as “the Tracer”. A 3 fold, 10 point serial dilution of compound, Example 1 and Example 2, are prepared in 100% DMSO and 50 nL/well transferred to a Proxiplate-384F white plate (PerkinElmer 6008280) using acoustic liquid handling. Control wells used to determine percent inhibition contained 100% DMSO (50 nL) and either assay buffer containing the Tracer (2.00 nM final concentration) (min, low FRET) or diluted TYK2-JH2 enzyme (0.200 nM final concentration) and the Tracer (2.00 nM final concentration) (max, high FRET). […] After 30 minutes, the plate is counted on a PerkinElmer Envision with the following settings: Excitation (340 nm), Tracer Emission (665 nm) and LanthaScreen Eu-anti-His Antibody Emission (615 nm). The ratio of Tracer Emission (665 nm) over LanthaScreen Eu-anti-His Antibody Emission (615 nm) is determined.

[2] = system: IFNα signaling through pSTAT1 in TF1 cells; test: Inhibition of IFNα Signaling Through pSTAT1 in TF1 Cells; format: cell-based; settings: Homo sapiens, TF-1, 1 hour pre-incubation, 10 ng/mL IFNα2 for 20 minutes, GeoMetric mean (SEM), read-out: IC50 (inhibition of p-Stat1 (Tyr701))
Procedure: TF1 cells (ATCC, CL-2003) are grown in RPMI 1640 (GIBCO) supplemented with 10% dialyzed FBS, 0.1 mg/mL Ampicillin and 2 ng/mL granulocyte macrophage colony stimulating factor. TF1 cells (100 K per well) are seeded in a 96-well poly-D-lysine coated plates in serum-free DMEM and incubated overnight at 37° C. under 5% CO2. Example 1 is serially diluted in DMSO, added to the cells, and incubated at 37° C. for 1 hour. Cells are then stimulated with 10 ng/mL IFNα2 at 37° C. for 20 minutes. After removing the medium, the cells are lysed in buffer containing Halt protease and phosphatase inhibitor cocktail (Thermo Scientific #78441) at ambient temperature for 30 minutes. The amount of p-Stat1 (Tyr701) is quantified as light emission at 615 nm using the AlphaLISA SureFire Ultra p-Stat1 (Tyr701) assay kit (Perkin Elmer #ALSU-PST1-A50K) following the vendor's recommended protocol.

[3] = system: IL-23 signaling (STAT3 phosphorylation) in Kit225 cells; test: IL23 pSTAT3 AlphaLISA Assay; format: cell-based; settings: 1 hour pre-incubation, IL23 25 ng/mL for 30 minutes, GeoMetric mean (SEM), read-out: relative IC50 (IL23 pSTAT3 AlphaLISA)
Procedure: IL2-dependent Kit225 cells (University of Texas MD Anderson Cancer Center) expressing endogenous IL23 receptors are stably transduced with the Lenti STAT3 Reporter linked to firefly luciferase (SABiosciences CLS-6028L). These cells are used to monitor TYK2 activity by quantifying gene expression caused by STAT3 phosphorylation following induction by IL23 in the presence of IL2 using AlphaLISA technology (TGR Biosciences ALSU-TST3-A50K). The cells are grown in RPMI 1640 (Gibco 22400) supplemented with 10% FBS (Invitrogen 10082), 1×Pen/Strep (Gibco 15140-122), 200 ng/ml Puromycin (Sigma P9620), and fresh 10 ng/ml recombinant human IL2 (R&D Systems 202-IL-50).
For assay preparation, cells are dispensed into Biocoat black poly-d-lysine coated clear bottom 384-well plates (Becton Dickinson Bio-Coat 35-4640) in DMEM (Sigma D5796) at 300,000 cells/well and allowed to incubate overnight at 37° C. Compounds solubilized in DMSO are serially diluted 1:3 to produce a 10-point concentration response curve (final DMSO=0.1%). Cells are pre-incubated with Example 1 for 1 hour at 37° C., then stimulated with IL23 (25 ng/mL final) for 30 minutes. […] The AlphaLISA reaction is performed following the vendor's recommended protocol, and the […] are measured using an Envision plate reader (Perkin Elmer).

Compound	IC50 [1]	IC50 [2]	IC50 [3]
CCOc1cccc(Nc2cc(NC)n3ncc(C(=O)N[C@@H]4CCN(C)C4=O)c3n2)n1 [Example 1, 5-[(6-Ethoxy-2-pyridyl)amino]-7-(methylamino)-N-[(3R)-1-methyl-2-oxo-pyrrolidin-3-yl]pyrazolo[1,5-a]pyrimidine-3-carboxamide]	< 0.254 nM	38 nM	29 nM
CNc1cc(Nc2cc(C)cc(C)n2)nc2c(C(=O)N[C@@H]3CCN(C)C3=O)cnn12 [Example 2, 5-[(4,6-Dimethyl-2-pyridyl)amino]-7-(methylamino)-N-[(3R)-1-methyl-2-oxo-pyrrolidin-3-yl]pyrazolo[1,5-a]pyrimidine-3-carboxamide]	< 0.254 nM	84 nM	60 nM
